# How the values were obtained:
# Pkd2 zebrafish = experiment: Pkd2 morphant zebrafish ciliopathy model (Example 1); type: in vivo
# Protocol: Animal Studies. All animal procedures were performed according to the University of California Irvine or Chapman University Animal Care and Use Committee Guidelines. To eliminate biases and subjective analyses, all animal studies were performed by double-blinded operators. Wild-type zebrafish AB strains were obtained from the Zebrafish International Resource Center. Embryos were injected with 1 mM morpholino oligos (GeneTools) at the 1-2 cell stage and cultured at 28.5° C. in sterile egg water. The following morpholino sequences were used: control scrambled MO: 5′-CCTCTTACCTCAGTTACAATTTATA-3′ (SEQ ID NO:1), Pkd2: 5′-AGGACGAACGCGACTGGGCTCATC-3′ (SEQ ID NO:2). The cardiac function was assessed by placing zebrafish on their dorsal axis to examine the relative locations of the ventricle and bulbus arteriosus, blood circulation and the heartbeat. Measurements of blood flow characteristics and heart parameters were performed using a Nikon Eclipse Ti microscope. NIS-Elements High Content AR 4.30.02 (Nikon) was used for the live tracking of the speed and acceleration of a single blood cell.
# [1] = system: Tie2Cre⋅Pkd2^flox/flox mice; experiment: Working heart perfusion system, hearts of treated Pkd2 mice (Example 2); type: in vivo, mouse
# Protocol: All mouse experiments were performed by two operators who were blinded to the experimental conditions. […] One-week-old Tie2Cre⋅Pkd2^WT/WT (with Cre activation; control group), Tie2Cre⋅Pkd2^flox/flox (without Cre activation; control group) or Tie2Cre⋅Pkd2^flox/flox (with Cre activation; experimental group) mice were intraperitoneally injected with 250 μg of tamoxifen in a 50-μL volume daily for five consecutive days.
# The ex vivo measurements of heart parameters were recorded using a mouse working heart system from Emka Technologies to study heart function independently of neuronal innervation or humoural effects. This system collected data regarding the cardiac contractile strength, electrical heart propagation or ECG and other cardiac functions, including the HR, LVP, LVV, left atrial pressure (LAP), aortic out flow (AOF), stroke volume (SV), cardiac output (CO), end diastolic/systolic volume (Edv-Esv), rate of left atrial pressure raise (+dp/dt) and fall (−dt/dt), and the preload, afterload, and main aortic pressure. Heparin (100 units, IP), xylazine (10-15 mg/kg, IP), and ketamine (200-350 mg/kg, IP) were used to prevent blood coagulation in the coronary arteries and to anaesthetize the mice. After cannulation, the heart was perfused with Krebs-Ringer superfusion solution (in mM: 125 NaCl, 2.5 KCl, 1.25 NaH2PO4, 2 CaCl2, 1 MgCl2, 25 NaHCO3 and 25 glucose). Throughout the experiment, the solution was continuously bubbled with carbogen (95% O2 and 5% CO2) to reach pH 7.4 at 38.0° C. Stress tests were performed on the heart by perfusing epinephrine (4 μg/L) or diltiazem (0.08 μg/L). Cardiac function was plotted in a loop diagram showing the LVV-LVP relationship (volume-pressure loop).
# primary cilia = experiment: Ca2+ and NO imaging under fluid shear stress (Example 1); type: cell-based; conditions: fluid shear 0.5 dyn/cm^2, vs corresponding controls
# Protocol: Ca^2+ and NO Imaging. For monolayer cell populations, intracellular measurements were obtained. […] After washed to remove excess Fura-2 AM, cytosolic Ca^2+ images were captured every second by recording Ca^2+-bound Fura-2 AM excitation fluorescence at 340/380 nm and emission at 510 nm. For intracellular nitric oxide (NO) measurements, the cells were incubated for 30 minutes at 37° C. with 20 μM DAF-FM (Cayman Chemicals). NO was then measured every second at the excitation and emission wavelengths of 495 and 515 nm, respectively. The cells were placed in PBS during the experiments and observed with a Nikon Eclipse Ti microscope. Fluid shear stress was then applied to cells through InsTech P720 peristaltic pumps with an inlet and outlet setup. The fluid was perfused through cell monolayers at a sub-minimal shear stress of 0.5 dyn/cm^2.
# In single-cell studies, cells were grown on 2% Formvar® and transfected with the Ca^2+ fluorescence reporter 5HT6-mCherry-G-GECO1.0 (Addgene) using the JetPrime transfection reagent (Polyplus transfection). The shear stress ranged from 0.01-1.0 dyn/cm^2 and was accurately measured and controlled at all times. […] For these experiments, none of the CT-NPs contained AF594 dye to avoid interference with the mCherry signal. Confocal laser scanning microscopy in fast-scan mode was used to avoid potential excessive photo bleaching. […]
smiles,measurement,setting,value
"Oc1ccc(C2CNCCc3c2cc(O)c(O)c3Cl)cc1 (centres unmarked) [Fenoldopam, fenoldopam]",tolerability of bolus injection,Pkd2 zebrafish,tachycardia-associated death
same,"CO, cardiac output",[1]; diltiazem stress,1783 ± 32 µL/min
same,"EDPVR, end-diastolic pressure volume relation",[1]; diltiazem stress,0.14 ± 0.01 mmHg/μL
same,"EF, ejection fraction",[1]; diltiazem stress,49.5 ± 0.3%
same,"ESPVR, end-systolic pressure volume relation",[1]; diltiazem stress,2.21 ± 0.03 mmHg/μL
same,"HR, heart rate",[1]; diltiazem stress,94 ± 11 beat/min
same,"LV EDP, end-diastolic pressure",[1]; diltiazem stress,5.7 ± 0.2 mmHg
same,"LV EDV, end-diastolic volume",[1]; diltiazem stress,40.0 ± 0.4 µL
same,"LV ESP, end-systolic pressure",[1]; diltiazem stress,35.5 ± 0.5 mmHg
same,"LV ESV, end-systolic volume",[1]; diltiazem stress,20.2 ± 0.1 µL
same,"LV Pmax, systolic pressure",[1]; diltiazem stress,44.7 ± 0.7 mmHg
same,"SV, stroke volume",[1]; diltiazem stress,19.8 ± 0.3 µL
same,"SW, stroke work",[1]; diltiazem stress,772 ± 10 mmHg · μL
same,"dP/dtmax, maximum rate of LV pressure rise",[1]; diltiazem stress,4020 ± 642 mmHg/s
same,"dP/dtmin, maximum rate of LV pressure fall",[1]; diltiazem stress,−1537 ± 97 mmHg/s
same,"EDPVR, end-diastolic pressure volume relation",[1]; epinephrine stress,0.16 ± 0.01 mmHg/μL
same,"EF, ejection fraction",[1]; epinephrine stress,77.7 ± 2.0%
same,"ESPVR, end-systolic pressure volume relation",[1]; epinephrine stress,9.8 ± 0.88 mmHg/μL
same,"HR, heart rate",[1]; epinephrine stress,216 ± 47 beat/min
same,"LV EDP, end-diastolic pressure",[1]; epinephrine stress,6.4 ± 0.5 mmHg
same,"LV EDV, end-diastolic volume",[1]; epinephrine stress,39.9 ± 0.1 µL
same,"LV ESP, end-systolic pressure",[1]; epinephrine stress,64.2 ± 0.9 mmHg
same,"LV ESV, end-systolic volume",[1]; epinephrine stress,8.9 ± 0.8 µL
same,"LV Pmax, systolic pressure",[1]; epinephrine stress,85.6 ± 1.2 mmHg
same,"SV, stroke volume",[1]; epinephrine stress,31.0 ± 0.8 µL
same,"SW, stroke work",[1]; epinephrine stress,2569 ± 53 mmHg · μL
same,"dP/dtmax, maximum rate of LV pressure rise",[1]; epinephrine stress,17130 ± 239 mmHg/s
same,"dP/dtmin, maximum rate of LV pressure fall",[1]; epinephrine stress,−3844 ± 278 mmHg/s
same,"CO, cardiac output",[1]; vehicle,3402 ± 92 µL/min
same,"EDPVR, end-diastolic pressure volume relation",[1]; vehicle,0.13 ± 0.01 mmHg/μL
same,"EF, ejection fraction",[1]; vehicle,62.5 ± 0.2%
same,"ESPVR, end-systolic pressure volume relation",[1]; vehicle,4.6 ± 0.04 mmHg/μL
same,"HR, heart rate",[1]; vehicle,136 ± 26 beat/min
same,"LV EDP, end-diastolic pressure",[1]; vehicle,5.0 ± 0.1 mmHg
same,"LV EDV, end-diastolic volume",[1]; vehicle,40.0 ± 0.1 µL
same,"LV ESP, end-systolic pressure",[1]; vehicle,52.2 ± 0.5 mmHg
same,"LV ESV, end-systolic volume",[1]; vehicle,15.0 ± 0.1 µL
same,"LV Pmax, systolic pressure",[1]; vehicle,69.7 ± 0.7 mmHg
same,"SV, stroke volume",[1]; vehicle,25.0 ± 0.1 µL
same,"SW, stroke work",[1]; vehicle,1616 ± 70 mmHg · μL
same,"dP/dtmax, maximum rate of LV pressure rise",[1]; vehicle,7524 ± 71 mmHg/s
same,"dP/dtmin, maximum rate of LV pressure fall",[1]; vehicle,−1625 ± 27 mmHg/s
same,NO biosynthesis,primary cilia,significantly increased
same,cytosolic Ca^2+,primary cilia,significantly increased cytosolic Ca^2+

# — patent US20210259954A1, “CILIA-TARGETING NANOPARTICLES” (Chapman University, priority 2019, published 2021)
